US7026305B2, “Anti-HIV agents with dual sites of action” (Meharry Medical College, priority 2003, dated 2006)
Like-named read-outs stand apart in the source and are kept apart here.

Experiments:
Format in all cases: cell-based
[1] = system: PI-R: A multiple HIV-1 protease inhibitor resistant strain; assay: Anti-HIV activity against multiple protease inhibitor resistant HIV-1 strain (FIG. 1, FIG. 2)
Source text: (§1) FIG. 1: Anti-HIV activity of N-[3-β-O-(3′,3′-dimethylsuccinyl)-lup-20(29)-en-28-oyl]-11-aminoundecanoic acid (LH 55-1). PI-R: A multiple HIV-1 protease inhibitor resistant strain. RT-R: A multiple HIV-1 reverse transcriptase inhibitor resistant strain. NL4-3: A T-cell line adapted HIV-1 strain. NL4-3/AZT: The effect of the 1st anti-HIV drug AZT on the NL4-3 virus.
(§2) (PI-R: A multiple HIV-1 protease inhibitor resistant strain. FH-R: DSB resistant HIV-1 strain. FH=DSB).
(§3) FIG. 1 graphically illustrates the anti-HIV activity of Compound 12 (also called compound LH 55-1). In FIG. 1, PI-R represents a multiple HIV-1 protease inhibitor resistant strain of HIV-1. RT-R represents a multiple HIV-1 reverse transcriptase inhibitor resistant strain of HIV-1; NL4-3 represents a T-cell line adapted HIV-1 strain; and NL4-3/AZT represents the effect of AZT on the NL4-3 virus.
(§4) FIG. 2 graphically illustrates that multiple protease inhibitor resistant strains of HIV-1 and DSB resistant HIV-1 are sensitive to Compound 12 (LH55-1). PI-R indicates a multiple HIV-1 protease inhibitor resistant strain of HIV-1, and FH-R indicates a DSB resistant HIV-1 strain (FH=DSB).

[2] = system: FH-R: DSB resistant HIV-1 strain; assay: Anti-HIV activity against DSB resistant HIV-1 strain (FIG. 2)
Source text: as §2, §4

[3] = system: HIV-1 envelope-mediated membrane fusion (COS cells expressing NL4-3 envelope glycoproteins and Hela cells expressing CD4 and CXCR4); assay: Cell-cell fusion assay (HIV-1 entry, FIG. 3)
Method: FIG. 3. LH55-1 (compound 12) and compound 9 inhibit HIV-1 entry. Fusion between COS cells expressing NL4-3 envelope glycoproteins and Hela cells expressing CD4 and CXCR4 were performed in the presence of compound 9, 12 and T20 as indicated in the figure.
To determine the mechanisms of action, the ability of LH55-1 and compound 9 to inhibit HIV-1 entry were analyzed by using a cell-cell fusion assay. Inhibition of HIV-1 envelope-mediated membrane fusion will prevent HIV-1 from entering into the cells. […] T20 is a polypeptide fusion inhibitor recently approved for anti-HIV-1 therapy by FDA, USA.

[4] = system: RT-R: A multiple HIV-1 reverse transcriptase inhibitor resistant strain; assay: Anti-HIV activity against multiple reverse transcriptase inhibitor resistant HIV-1 strain (FIG. 1)
Source text: as §1, §3

[5] = system: HIV-1 maturation (processing of P25 into p24); assay: Inhibition of viral maturation, Western blot of viral particles from ACH-2 cells (FIG. 4)
Source text: FIG. 4. LH55-1 (compound 12) inhibits HIV-1 maturation. HIV-1 viral particles produced from ACH-2 cells in the absence (A) or presence (B) of LH55-1. The collected viral samples were lysed and analyzed by using a Western blot. The primary antibody used for the Western blot is a HIV-1 positive human serum. Mw: Molecular weight standards.
P24 is the capsid protein of HIV-1 and is essential for viral infectivity. P25 is the precursor of p24. Inhibition of the processing of P25 into p24 will result in an immature viral particle without infectivity. […] Further studies in our laboratory indicate that the amino acids at the C-terminus of P24 are critical determinant for the drug sensitivity. The anti-HIV-1 maturation activity of LH55-1 is different from that of HIV-1 protease inhibitors since maturation of other HIV-1 gag proteins such as P17 in not affected by LH55-1.

| Structure (SMILES) | anti-HIV activity / sensitivity of virus to compound [1] | sensitivity of virus to compound [2] | anti-HIV-1 entry activity [3] | anti-HIV activity / sensitivity of virus to compound ([1]; listed as Compound 12) | anti-HIV activity / sensitivity of virus to compound ([1]; listed as LH55-1) | anti-HIV activity [4] | sensitivity of virus to compound ([2]; listed as LH55-1) | concentration blocking HIV-1 envelope-mediated membrane fusion [3] | maturation of other HIV-1 gag proteins such as P17 [5] | processing of P25 into p24 (virion maturation) ([5]; viral particles from ACH-2 cells) |
| --- | --- | --- | --- | --- | --- | --- | --- | --- | --- | --- |
| C=C(C)C1CC[C@]2(C(=O)O)CC[C@]3(C)[C@H](CCC4[C@@]5(C)CCC(OC(=O)CC(C)(C)C(=O)O)C(C)(C)[C@@H]5CC[C@]43C)[C@@H]12 (stereo partly shown) [DSB, reference compound] | resistant | resistant |  |  |  |  |  |  |  |  |
| C=C(C)[C@@H]1CC[C@]2(C(=O)NC(CC(C)C)C(=O)O)CC[C@]3(C)[C@H](CCC4[C@@]5(C)CC[C@H](OC(=O)CC(C)(C)C(=O)O)C(C)(C)[C@@H]5CC[C@]43C)[C@@H]12 (stereo partly drawn) [compound 9, N-[3-β-O-(3′,3′-dimethylsuccinyl)-lup-20(29)-en-28-oyl]-L-leucine] |  |  | exhibited anti-HIV-1 entry activity, albeit at higher concentrations than compound 12 |  |  |  |  |  |  |  |
| C=C(C)[C@@H]1CC[C@]2(C(=O)NCCCCCCCCCCC(=O)O)CC[C@]3(C)[C@H](CC[C@@H]4[C@@]5(C)CC[C@H](OC(=O)CC(C)(C)C(=O)O)C(C)(C)[C@@H]5CC[C@]43C)[C@@H]12 [compound 12, N-[3-β-O-(3′,3′-dimethylsuccinyl)-lup-20(29)-en-28-oyl]-11-aminoundecanoic acid] | substantial antiviral activity | sensitive | potent HIV-1 entry inhibitor | sensitive | very sensitive | substantial antiviral activity | very sensitive | sub-micromolar | not affected | accumulation of P25 |
